pIC50: −log10 of the molar value.
Molecular target: T1, human leukocyte 5-lipoxygenase (Homo sapiens, UniProt P09917)
T1 construct: endogenous in cells; host or cells: leukocytes from fresh blood of normal adult men
T1 sequence (P09917 1-674): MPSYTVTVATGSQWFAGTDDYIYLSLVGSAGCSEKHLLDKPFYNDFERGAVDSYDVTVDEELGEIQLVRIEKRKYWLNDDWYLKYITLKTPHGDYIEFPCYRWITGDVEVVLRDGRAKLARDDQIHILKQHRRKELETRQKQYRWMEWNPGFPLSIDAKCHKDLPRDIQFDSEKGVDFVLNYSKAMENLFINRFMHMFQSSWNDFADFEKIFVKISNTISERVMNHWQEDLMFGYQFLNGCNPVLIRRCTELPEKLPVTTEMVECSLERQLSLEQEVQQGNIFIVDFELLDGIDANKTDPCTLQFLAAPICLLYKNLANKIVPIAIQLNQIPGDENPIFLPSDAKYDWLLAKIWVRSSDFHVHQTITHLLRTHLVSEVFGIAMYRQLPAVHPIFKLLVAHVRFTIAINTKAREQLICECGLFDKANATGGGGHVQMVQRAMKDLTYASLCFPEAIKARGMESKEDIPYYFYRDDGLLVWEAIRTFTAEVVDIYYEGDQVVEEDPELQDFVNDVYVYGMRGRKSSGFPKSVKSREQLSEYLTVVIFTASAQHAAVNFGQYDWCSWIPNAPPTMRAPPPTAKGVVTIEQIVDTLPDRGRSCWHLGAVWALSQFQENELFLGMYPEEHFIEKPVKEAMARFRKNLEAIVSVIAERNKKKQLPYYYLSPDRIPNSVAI
Experiment: 5-Lipoxygenase Inhibitor in Human Leukocytes (5LOA1)
Format: cell-based
Conditions: 100 μM exogenous arachidonic acid; read-out: IC50 5LOA (100)*
Text: To Evaluate the Effect of Each Compounds as a 5-Lipoxygenase Inhibitor in Comparison to Standard Reference Agents in Human Leukocytes (5LOA1)
The purpose of this assay is to evaluate the activity of each compound as an inhibitor of human leukocyte 5-lipoxygenase.
Arachidonic acid and calcium ionophore A23187 are obtained from Sigma (St. Louis, MO). Silica gel plates, GF are obtained from Analtech (Newark, DE). Arachidonic acid, (1-^14 C) and 5-HETE (^3 H), 5 (S)-hydroxy-6-trans,8,11,14-cis eicosatetraenoic acid, are obtained from New England Nuclear (Boston, MA). Six percent Dextran-70 in 0.9% NaCl is obtained from Cutter Labs (Berkeley, CA).
Preparation of Leukocytes
Fresh blood from normal adult men who had not received any drugs for at least the previous five days is obtained by the Community Research Clinic (WL/PD) using venipuncture and collected into heparinized vacuotainer tubes. To every 100 ml of pooled blood is added 25 ml of dextran solution (6% dextran -70 in 0.9% sodium chloride containing 3% dextrose) and this is mixed gently in a plastic cylinder. The mixture is left to stand at room temperature for at least 90 minutes. The upper layer which is rich in leukocytes and platelets is then carefully decanted into 50 ml plastic tubes and centrifuged at about 100×g for eight minutes in an IEC centrifuge and rotor number 269 (about 600 rpm). The supernatant fluid is discarded and the pellet is resuspended in 10 ml of 0.87% ammonium chloride for exactly two minutes. This procedure is to lyse completely contaminating red blood cells. Leukocytes are then separated by centrifugation for ten minutes. The pellet is washed three times by suspension in 20 ml PBS (sodium chloride, 7.1 g; Na2 HPO4, 1.15 g; KH2 PO4, 0.2 g, and KCl, 0.2 g/L) and centrifuged as before. The final pellet is suspended in PBS containing 0.87 mM CaCl2. Viability of the cells is then checked using trypan blue exclusion method and is found to be over 90%.
5-Lipoxygenase Enzyme Assay
Cells in suspension (0.98 ml) are incubated with or without test compounds for five minutes at 37° C. in a shaking water bath. At this time a 17 μl mixture is prepared per 1 ml of cell suspension: 100 mM arachidonic acid, 1 μl, 0.05 μCi ^14 C-arachidonic acid in 5 μl; 1 mM calcium ionophore A23187, 10 μl (1). This mixture is added and the incubation continued for five minutes. The reaction is stopped by adding four volumes of absolute ethanol and the mixture is kept in ice for 30 minutes. The floculated precipitate is separated by centrifugation at about 37,000×g for 20 minutes (Beckman Instruments rotor number 40). The alcohol extract is taken to dryness under a stream of nitrogen and the residue is dissolved in 100-200 μl absolute ethanol. At the time any turbidity is removed by centrifugation. An aliquot (25-50 μl) is applied onto 20×20 cm silica gel TLC plate and developed using the following solvent system: diethyl ether, petroleum ether (20°-40° C.), acetic acid (50:50:1 v/v). Zones of 1 cm apart are scraped from the TLC plate and transferred to mini-vials. Methanol (0.5 ml) is added to dissolve the radioactivity adsorbed to the silica gel and scintillation fluid (H.P., Beckman), 5 ml is then added and vials are counted in a liquid scintillation counter. A sample of ^3 H-5-HETE is applied and used for the identification of the formed 5-HETE.
Total radioactivity in the test as well as the control samples are normalized and the amount of 5-HETE present is calculated accordingly.
IC50 values are defined as the concentrations of test agents which caused a 50% inhibition of the formation of 5-HETE as compared to control and are determined by inspection of the concentration-response curves.

Row | pIC50 | Compound
1 | 4.40 | CN(C(=O)c1ccccc1-c1ccccc1C(=O)O)c1ccc(CCc2ccc(Cl)c(Cl)c2)cc1 [Example 5, [1,1'-Biphenyl]-2-carboxylic acid, 2'-[[[4-[2-(3,4-dichlorophenyl)ethyl]phenyl]methylamino]carbonyl]-]
2 | < 4.70 | COc1ccc(CCc2ccc(NC(=O)c3ccccc3-c3ccccc3C(=O)O)cc2)cc1OC [Example 7, [1,1'-Biphenyl]-2-carboxylic acid, 2'-[[[4-[2-(3,4-dimethoxyphenyl)ethyl]phenyl]amino]carbonyl]-]
3 | 5.34 | O=C(O)c1ccccc1-c1ccccc1C(=O)Nc1ccc(CCc2ccc(Cl)c(Cl)c2)cc1 [Example 3, [1,1'-Biphenyl]-2-carboxylic acid, 2'-[[[4-[2-(3,4-dichlorophenyl)ethyl]phenyl]amino]carbonyl]-]
4 | 5.02 | O=C(O)c1ccccc1-c1ccccc1C(=O)Nc1ccc(CCCc2ccc(Cl)c(Cl)c2)cc1 [Example 1, [1,1'-Biphenyl]-2-carboxylic acid, 2'-[[[4-[3-(3,4-dichlorophenyl)propyl]phenyl]amino]carbonyl]-]
5 | 4.92 | O=C(O)c1ccccc1-c1ccccc1C(=O)Nc1ccc(CCc2ccc(Cl)cc2)cc1 [Example 11, [1,1'-Biphenyl]-2-carboxylic acid, 2'-[[4-[2-[(4-chlorophenyl)ethyl]phenyl]amino]carbonyl]-]
6 | 5.03 | O=C(O)c1ccccc1-c1ccccc1C(=O)Nc1cccc(CCc2ccc(Cl)c(Cl)c2)c1 [Example 4, [1,1'-Biphenyl]-2-carboxylic acid, 2'-[[[3-[2-(3,4-dichlorophenyl)ethyl]phenyl]amino]carbonyl]-]
7 | < 4.70 | CN(C(=O)c1ccccc1-c1ccccc1C(=O)O)c1ccc(CCc2ccc(Cl)cc2)cc1 [Example 8]

Reference: patent publication US4786755A, “Diphenic acid monoamides” (Warner-Lambert Company, priority 1986, dated 1988)
